Reference: patent EP1541694A1, “Methods of identifying, selecting and/or characterizing compounds which modulate the activity of a Src family kinase” (Sirenade Pharmaceuticals AG, priority 2003, dated 2005)

Columns and labels:
[1] = system: Src-YF expressing ZM77 cell lines; test: Suppression of tet-induced phenotype changes, evaluated by eye/microscope, normal cell culture plates; type: cell-based, human; details: adherent, serum-containing medium
Procedure: Phenotype changes -tet → +tet were evaluated in 24-well plates (Nunc; cat.no. 143982) under the following several different growth conditions to identify the strongest possible response (Δpt(-tet→+tet)max) 1. full (10% serum containing) growth medium a) without any growth factor supplement (-), b) with epidermal growth factor (EGF; 100ng/ml) (cat.no. 115, Research Diagnostics Inc. (RDI), Flanders, NJ, USA) or c) platelet derived growth factor type BB (PDGF-BB; 30ng/ml) (cat.no. 114b, RDI) or d) hepatocyte growth factor (HGF; 20ng/ml) (RDI, cat.no.300-010), or 2. serum-free medium a) - or b) +EGF or c) +PDGF or d) +HGF. In all cases, cells were first seeded into standard 24-well or 96-well plates (Nunc) in full growth medium. The cell number seeded per well was also varied to identify the most suitable cell densities producing Δpt(-tet→+tet)max. […]
To that end, the test compounds PP1-Chr., PP2 (cat.no. 529573, Calbiochem) and SU6656 (cat.no. 572635, Calbiochem) (see Fig.9p for chemical structures) were individually added to the cells together with tet, and the development of the phenotype changes in the presence of these compounds was monitored subsequently in direct comparison with cells that received no compound or only vehicle (0.2% DMSO) together with tet induction. […]

[2] = system: ZM75.7 (Src); test: MTS and ATP cell viability/metabolic activity assays, suppression of tet-induced reduction; type: cell-based, human; details: 3 days after tet/compound addition
Text: To proof the concept of the assay platform according to the invention in a quantitative manner with a highly parallel readout, the following cell viability / metabolic activity assays from Promega according to the manufacturer's protocols: "CellTiter 96 AQueous One Solution Cell Proliferation Assay (MTS)", CellTiter-Blue™ Cell Viability Assay (CTB), and the ATP-status assay "CellTiter-Glo Luminescent Cell Viability Assay" (ATP) were used to obtain quantitative values reflecting (aspects of) the phenotype changes.
The cells were seeded into white-walled/ clear bottom 96-well plates ["MICROTEST" by Falcon, cat.no. […] Measurements were taken 1,2 and 3 days later using the Wallac Victor^2™ multilabel plate reader (Perkin Elmer). Absorbance was measured at 490nm (MTS). Luminescence mode was used for the ATP assay. For CTB fluorescence excitation wavelength was 550nm (filter: 550(20)nm), emission wavelength was 590 nm (filter: 590(20)nm). […]
Three more parameters reflecting the effects of compounds on cell viability/metabolic activity in these assays are indicated in Tab.3 and Tab.4: Toxicity reflects the nonspecific (i.e. irrespective of tet-induced Src/ Src mutant expression) effects of a compound on the viability/ metabolic activity of the cells. It is calculated as toxicity=1-mean(-tet, compound)/mean(-tet,(DMSO)). […]

## CC(C)(C)n1nc(-c2ccc(Cl)cc2)c2c(N)ncnc21 [PP2]
[1]
  suppression of tet-induced phenotype changes: partially suppressed
[2]
  suppression effects on ZM75.7: detected
